Source: the supplement of paper PMC10307832

What was measured:
Test in all cases: relative viability (nuclei count vs DMSO), 5 days (fraction); higher = more cells survive
[1] = system: NCI-H1651
How it was run: (§1)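 Five library-drug doses in √10 steps were combined with a fixed anchor-drug dose, or a single drug was given alone, by pin tool to lung cancer cell lines in 1536-well plates the day after seeding. Nuclei were stained and counted after 5 days. Relative viability is the nuclei count in treated wells over that in vehicle wells, taken as the median of duplicate plates.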

[2] = system: RERF-LC-KJ
How it was run: as §1

[3] = system: NCI-H1703
How it was run: as §1

[4] = system: PC-3 [JPC-3]
How it was run: as §1

[5] = system: NCI-H838
How it was run: as §1

[6] = system: NCI-H650
How it was run: as §1

[7] = system: NCI-H1944
How it was run: as §1

[8] = system: NCI-H1648
How it was run: as §1

[9] = system: IA-LM
How it was run: as §1

[10] = system: EBC-1
How it was run: as §1

[11] = system: NCI-H1299
How it was run: as §1

[12] = system: A549
How it was run: as §1

[13] = system: Calu-6
How it was run: as §1

[14] = system: NCI-H520
How it was run: as §1

Structure (SMILES): Nc1ccn([C@@H]2O[C@H](CO)[C@@H](O)[C@@H]2O)c(=O)n1 [Cytarabine] + NC(=O)Nc1cc(-c2cccc(F)c2)sc1C(=O)N[C@H]1CCCNC1 [AZD7762] (partner 0.2 µM)
- relative viability ([1]; first compound 0.005 µM): 0.484
- relative viability ([1]; first compound 0.01581 µM): 0.447
- relative viability ([1]; first compound 0.05 µM): 0.297
- relative viability ([1]; first compound 0.1581 µM): 0.114
- relative viability ([1]; first compound 0.5 µM): 0.0958
- relative viability ([2]; first compound 0.005 µM): 0.957
- relative viability ([2]; first compound 0.01581 µM): 0.941
- relative viability ([2]; first compound 0.05 µM): 0.51
- relative viability ([2]; first compound 0.1581 µM): 0.381
- relative viability ([2]; first compound 0.5 µM): 0.322
- relative viability ([3]; first compound 0.005 µM): 0.108
- relative viability ([3]; first compound 0.01581 µM): 0.121
- relative viability ([3]; first compound 0.05 µM): 0.103
- relative viability ([3]; first compound 0.1581 µM): 0.124
- relative viability ([3]; first compound 0.5 µM): 0.13
- relative viability ([4]; first compound 0.005 µM): 0.746
- relative viability ([4]; first compound 0.01581 µM): 0.809
- relative viability ([4]; first compound 0.05 µM): 0.676
- relative viability ([4]; first compound 0.1581 µM): 0.395
- relative viability ([4]; first compound 0.5 µM): 0.425
- relative viability ([5]; first compound 0.005 µM): 0.738
- relative viability ([5]; first compound 0.01581 µM): 0.699
- relative viability ([5]; first compound 0.05 µM): 0.665
- relative viability ([5]; first compound 0.1581 µM): 0.652
- relative viability ([5]; first compound 0.5 µM): 0.631
- relative viability ([6]; first compound 0.005 µM): 0.843
- relative viability ([6]; first compound 0.01581 µM): 0.26
- relative viability ([6]; first compound 0.05 µM): 0.19
- relative viability ([6]; first compound 0.1581 µM): 0.146
- relative viability ([6]; first compound 0.5 µM): 0.162
- relative viability ([7]; first compound 0.005 µM): 0.353
- relative viability ([7]; first compound 0.01581 µM): 0.204
- relative viability ([7]; first compound 0.05 µM): 0.159
- relative viability ([7]; first compound 0.1581 µM): 0.12
- relative viability ([7]; first compound 0.5 µM): 0.135
- relative viability ([8]; first compound 0.005 µM): 0.647
- relative viability ([8]; first compound 0.01581 µM): 0.882
- relative viability ([8]; first compound 0.05 µM): 0.73
- relative viability ([8]; first compound 0.1581 µM): 0.527
- relative viability ([8]; first compound 0.5 µM): 0.401

Structure (SMILES): Nc1ccn([C@@H]2O[C@H](CO)[C@@H](O)[C@@H]2O)c(=O)n1 [Cytarabine] + O=C(c1cc(Cc2n[nH]c(=O)c3ccccc23)ccc1F)N1CCN(C(=O)C2CC2)CC1 [Olaparib] (partner 8 µM)
- relative viability ([9]; first compound 0.005 µM): 0.626
- relative viability ([9]; first compound 0.01581 µM): 0.714
- relative viability ([9]; first compound 0.05 µM): 0.55
- relative viability ([9]; first compound 0.1581 µM): 0.372
- relative viability ([9]; first compound 0.5 µM): 0.268
- relative viability ([10]; first compound 0.005 µM): 0.725
- relative viability ([10]; first compound 0.01581 µM): 0.569
- relative viability ([10]; first compound 0.05 µM): 0.476
- relative viability ([10]; first compound 0.1581 µM): 0.375
- relative viability ([10]; first compound 0.5 µM): 0.241
- relative viability ([1]; first compound 0.005 µM): 0.187
- relative viability ([1]; first compound 0.01581 µM): 0.193
- relative viability ([1]; first compound 0.05 µM): 0.181
- relative viability ([1]; first compound 0.1581 µM): 0.199
- relative viability ([1]; first compound 0.5 µM): 0.168
- relative viability ([2]; first compound 0.005 µM): 0.886
- relative viability ([2]; first compound 0.01581 µM): 0.806
- relative viability ([2]; first compound 0.05 µM): 0.655
- relative viability ([2]; first compound 0.1581 µM): 0.459
- relative viability ([2]; first compound 0.5 µM): 0.277
- relative viability ([3]; first compound 0.005 µM): 0.338
- relative viability ([3]; first compound 0.01581 µM): 0.302
- relative viability ([3]; first compound 0.05 µM): 0.196
- relative viability ([3]; first compound 0.1581 µM): 0.0956
- relative viability ([3]; first compound 0.5 µM): 0.0977
- relative viability ([4]; first compound 0.005 µM): 0.508
- relative viability ([4]; first compound 0.01581 µM): 1.09
- relative viability ([4]; first compound 0.05 µM): 0.971
- relative viability ([4]; first compound 0.1581 µM): 0.682
- relative viability ([4]; first compound 0.5 µM): 0.617
- relative viability ([11]; first compound 0.005 µM): 0.991
- relative viability ([11]; first compound 0.01581 µM): 0.93
- relative viability ([11]; first compound 0.05 µM): 0.987
- relative viability ([11]; first compound 0.1581 µM): 0.985
- relative viability ([11]; first compound 0.5 µM): 0.94
- relative viability ([5]; first compound 0.005 µM): 0.633
- relative viability ([5]; first compound 0.01581 µM): 0.655
- relative viability ([5]; first compound 0.05 µM): 0.643
- relative viability ([5]; first compound 0.1581 µM): 0.278
- relative viability ([5]; first compound 0.5 µM): 0.197
- relative viability ([6]; first compound 0.005 µM): 0.363
- relative viability ([6]; first compound 0.01581 µM): 0.277
- relative viability ([6]; first compound 0.05 µM): 0.169
- relative viability ([6]; first compound 0.1581 µM): 0.14
- relative viability ([6]; first compound 0.5 µM): 0.156
- relative viability ([12]; first compound 0.005 µM): 0.318
- relative viability ([12]; first compound 0.01581 µM): 0.242
- relative viability ([12]; first compound 0.05 µM): 0.0968
- relative viability ([12]; first compound 0.1581 µM): 0.0579
- relative viability ([12]; first compound 0.5 µM): 0.0331
- relative viability ([7]; first compound 0.005 µM): 0.438
- relative viability ([7]; first compound 0.01581 µM): 0.33
- relative viability ([7]; first compound 0.05 µM): 0.322
- relative viability ([7]; first compound 0.1581 µM): 0.204
- relative viability ([7]; first compound 0.5 µM): 0.156
- relative viability ([13]; first compound 0.005 µM): 0.597
- relative viability ([13]; first compound 0.01581 µM): 0.488
- relative viability ([13]; first compound 0.05 µM): 0.41
- relative viability ([13]; first compound 0.1581 µM): 0.337
- relative viability ([13]; first compound 0.5 µM): 0.225
- relative viability ([14]; first compound 0.005 µM): 0.276
- relative viability ([14]; first compound 0.01581 µM): 0.272
- relative viability ([14]; first compound 0.05 µM): 0.337
- relative viability ([14]; first compound 0.1581 µM): 0.263
- relative viability ([14]; first compound 0.5 µM): 0.239
- relative viability ([8]; first compound 0.005 µM): 0.904
- relative viability ([8]; first compound 0.01581 µM): 0.793
- relative viability ([8]; first compound 0.05 µM): 0.954
- relative viability ([8]; first compound 0.1581 µM): 0.319
- relative viability ([8]; first compound 0.5 µM): 0.377
